The values that follow come from patent US20220370464A1, “COMPOSITIONS AND METHODS OF TREATING OR PREVENTING OCULAR INFECTIONS WITH FILOCICLOVIR” (Microbiotix, Inc., priority 2019, published 2022).

Data set [1] has as its system JC Virus. The note with it: Polyomavirus, cited from earlier work.
Data set [2] concerns EBV. To be noted: γ Herpesvirus, cited from earlier work.
For data set [3], the system named is Adenovirus 5 (AdV5). To be noted: AdV 5‡, summary table; cited from earlier work.
The subject of data set [4] is AdV6. Description: Immunofluorescence assay of AdV6-infected A549 cells (DBP and hexon staining). The class given is cell-based, adenovirus 6. To be noted: 27 hours post-infection. As to the method:
(§1) Human A549 cells on glass coverslips in 6-well plates were infected at an MOI of 5 PFU/cell with either AdV5 or AdV6 or were mock-infected. After 1 hour, filociclovir was added to a final concentration of 40, 10, 4, or 0 μM. At 27 hours post-infection, the A549 cells were fixed in paraformaldehyde (3.7% in PBS) and permeabilized with methanol. Cells were stained for the Adenovirus DNA-binding protein (DBP; green staining in images) and adenovirus hexon (red staining in images). DBP staining will be […] and uniform during early AdV infection (prior to AdV DNA replication). DBP associates with replication centers as the infection progresses. The replication centers are initially small “dots” (each dot results from one incoming AdV genome). The replication centers will expand and “multiply” as DNA replication takes place. The nuclei become enlarged and misshapen as infection progresses. AdV hexon, the most abundant component of the AdV viral capsid, is not expressed until after DNA replication is taking place and is therefore considered to be a “late” AdV protein.

The subject of data set [5] is AdV 4. The data set is described as follows: Antiviral EC50 against AdV 4 (method not given). The note with it: Human mastadenovirus E; AdV 4, summary table. Type of data set: cell-based, adenovirus 4.
The subject of data set [6] is HHV-8. To be noted: γ Herpesvirus, cited from earlier work.
Data set [7] deals with Adenovirus 6 (AdV6). Description: Neutral red survival assay, AdV6 in A549 cells. Type of data set: cell-based. The protocol: (§2) Similar experiments were carried out with filociclovir against adenovirus 6, adenovirus 7, and adenovirus 8.
(§3) The neutral red cell cytotoxicity assay is used to detect cell viability or drug cytotoxicity. The principle of this assay is based on the detection of viable cells via the uptake of the dye neutral red. Neutral red is a eurhodin dye that stains lysosomes in viable cells. Viable cells can take up neutral red via active transport and incorporate the dye into their lysosomes, but non-viable cells cannot not take up this chromophore. Consequently, after washing, viable cells can release the incorporated dye under acidified-extracted conditions. The amount of released dye can be used to determine the total number of viable cells or drug cytotoxicity. As such, cytotoxicity is expressed as a concentration-dependent reduction of the uptake of neutral red after exposure to the compound under investigation.
Neutral red survival assays were carried out in a 96-well format. Briefly, A549 adenocarcinomic human alveolar basal epithelial cells were plated at a concentration of 6×10^3 cells per well one day prior to infection. AdV6 infections were carried out at 5×10^3 PFU per well (an estimated 0.5 PFU/cell at the time of infection). […] Filociclovir plates were read and the results were graphed using GraphPad Prism graphing and statistical software (GraphPad Software, San Diego, Calif.).

In data set [8] the test system is AdV7. Description: CPE reduction assay, adenovirus 7. Type of data set: cell-based. As to the method:
as §2

Data set [9] is described as follows: Cytotoxicity, neutral red, uninfected drug control wells of A549 cells. The class given is cell-based. The note with it: human, AdV6 row of Table 2.
Text: as §3
Neutral red survival assays were carried out in a 96-well format. Briefly, A549 adenocarcinomic human alveolar basal epithelial cells were plated at a concentration of 6×10^3 cells per well one day prior to infection. AdV6 infections were carried out at 5×10^3 PFU per well (an estimated 0.5 PFU/cell at the time of infection). Filociclovir was serially diluted 1:3 on separate 96-well plates with a no drug final row as control. […] Filociclovir plates were read and the results were graphed using GraphPad Prism graphing and statistical software (GraphPad Software, San Diego, Calif.).

The test system of data set [10] is AdV5. The data set is described as follows: Immunofluorescence assay of AdV5-infected A549 cells (DBP and hexon staining). The class given is cell-based, adenovirus 5. To be noted: 27 hours post-infection. The protocol:
as §1

The test system of data set [11] is CMV. To be noted: β Herpesvirus, cited from earlier work.
Data set [12] is described as follows: Pharmacokinetics in immunosuppressed Syrian hamsters. The class given is in vivo. To be noted: for detectability after administration (FIG. 5): 6 hours after administration. The protocol:
In order to test the pharmacokinetics of filociclovir, Syrian hamsters were given either an oral (p.o. 50 mg/kg) or intravenous (i.v. 10 mg/kg) dose of filociclovir.
For i.v. administration, filociclovir was dissolved in DMSO (Sigma D2650) and then diluted with water to a final concentration of 5 mg/ml for filociclovir and 75% DMSO. The dosing solutions were prepared one day before use and stored at 4° C.
Male hamsters were purchased from Envigo (Harlan) at ˜100 g body weight. […] The animals received three injections of CP before the administration of filociclovir. Two groups of animals (12 hamsters/group) were used for the two routes of administrations. In addition, three untreated animals (the same three hamsters for both routes) served as mock controls. The p.o. and i.v. experiments were performed on two consecutive days. As the hamsters weighed approximately 100 g, (+/−10%), they were administered 1 ml and 0.2 ml for the p.o. and i.v. routes, respectively, to achieve the desired dose. For both routes, 3 hamsters were sacrificed at 0.5, 1, 3, and 6 h post dosing.
Plasma and liver samples were collected from all animals and stored at −80° C. until analyzed by LC MS as follows: • All samples and standards were processed on ice; • Standard curve is constructed with authentic compound (fresh powder DMSO reconstitution spiked into “blank” Hamster plasma) and all samples spiked with 500 ng/mL carbamezapine (Internal Standard); • Early time point samples are diluted in “blank” hamster plasma (try to attain concentrations on the standard curve); • Sample extracted with 2× sample volume with 0.1% ammonium formate in methanol (i.e. 30 μL sample+60 μL 0.1% ammonium formate in methanol); • Extracted samples centrifuged on maximum setting in microfuge; • Supernatants are analyzed by LC/MS/MS Dynamic Multiple Reaction Monitoring (DMRM) utilizing custom method.

Data set [13] relates to AdV 6. Description: Antiviral EC50 against AdV 6 (method not given). The class given is cell-based, adenovirus 6. The note with it: Human mastadenovirus C; AdV 6, summary table.

Molecules are shown by their SMILES. Like-named read-outs stand apart in the source and are kept apart here.

A word on the EC50: it is the concentration needed to bring the measured effect to its halfway point. The CC50 is the concentration at which the toxic effect on the cells reaches its halfway point. As for `Nc1nc2c(ncn2/C=C2/CC2(CO)CO)c(=O)[nH]1` [Filociclovir, 2-amino-9-{(Z)-[2,2-bis(hydroxymethyl)cyclopropylidene]methyl}-3,9-dihydro-6H-purin-6-one], the EC50 was ≤ 50000 nM in data set [1] (listed as filociclovir); 46000 ± 44000 nM in data set [1]; ≤ 10000 nM in data set [2] (listed as filociclovir); 1000 ± 940 nM in data set [2]; 2200 ± 400 nM in data set [3]; 2400 nM in data set [5]. Moreover, the concentration for a half-maximal effect (EC50) in data set [6] (listed as filociclovir) was ≤ 10000 nM; in [6], 5600 ± 5000 nM; in data set [11] (listed as filociclovir) it was ≤ 10000 nM; in [11], 1000 ± 600 nM; in [13], 2000 nM. Also, the hexon-positive cells entry in [4] (AdV6, A549, 4 μM) is “Some hexon-positive cells”; in [4] (AdV6, A549, 10 μM), “extremely few hexon-positive cells”; in data set [4] (AdV6, A549, 40 μM), “No hexon-positive cells”; in data set [10] (AdV5, A549, 4 μM) it was “Some hexon-positive cells”; in [10] (AdV5, A549, 10 μM) it was “extremely few hexon-positive cells”; in [10] (AdV5, A549, 40 μM), “No hexon-positive cells”. Moreover, in data set [7] (A549 cells, 6 days post-infection, 'as low as'), the “concentration effective to improve viability of AdV6 infected cells (FIG. 2)” value was ≥ 10^−1 μM. Also, the CC50/EC50 in data set [7] (AdV6) is on record as 27; in data set [8], >144. In data set [9], the CC50 at 6 days is > 100000 nM. In addition, the oral bioavailability result in [12] (hamsters) was “good oral bioavailability”. Besides, the “detectability after administration (FIG. 5)” value in data set [12] (i.v. 10 mg/kg) and in data set [12] (p.o. 50 mg/kg) was “still detectable” in each case.
